In this experiment the test system is Candida albicans. In words: Activity against crop candidosis in turkeys (dose whereby crops of 50% of animals were completely negative). It is filed as in vivo. The conditions noted are these: medicated feed for 13 consecutive days. How it is done: Experiment B: Activity of Compounds (I) Against Crop Candidosis in Turkeys
Turkeys of 14 days old were infected in the crop with 4.10^6 Candida albicans cells, grown on Sabouraud broth for 48 hours at 37° C. and diluted with saline. The volume of the inoculum was 1 ml. The drug under investigation were premixed in 500 mg of lacton and thereafter admixed in 1000 g of meal without any additives. The concentration of the drug under investigation in the meal was expressed in mg/kg.
The animals were given the medicated feed for 13 consecutive days starting on the day of infection. At the end of the experiment all animals were sacrificed. At autopsy the crops were removed, emptied and grinded in an ultra-turrax mixer in 15 ml of sterile saline. Colony counting was done on Sabouraud agar and the results given in the Tables I, II and III represent the ED50, i.e., the dose of the drug whereby the crops of 50% of the animals were completely negative for Candida albicans.

Results on 13 compounds are retold here after US4223036A, “1-(1,3-Dioxolan-2-ylmethyl)-1H-1,2,4-triazoles” (Janssen Pharmaceutica N.V., priority 1979, dated 1980).

Where a name gives a salt, the structure may show the parent alone.

As to `O=C(Nc1ccc(OC[C@H]2CO[C@](Cn3ccnc3)(c3ccc(Cl)cc3Cl)O2)cc1)c1ccc(Cl)cc1` (relative stereo), the “ED50 (crop candidosis in turkeys)” value (Table I) is on record as 31 mg/kg of feed.

As to `CC(C)CN1CCN(c2ccc(OC[C@H]3CO[C@](Cn4ccnc4)(c4ccc(Cl)cc4Cl)O3)cc2)CC1` (relative stereo), the “ED50 (crop candidosis in turkeys)” value (Table I) is 16 mg/kg of feed.

Take `CCCCN1CCN(c2ccc(OC[C@H]3CO[C@](Cn4ccnc4)(c4ccc(Cl)cc4Cl)O3)cc2)CC1` (relative stereo): the “ED50 (crop candidosis in turkeys)” value (Table I) was 31 mg/kg of feed.

With `O=S(=O)(Cc1ccccc1)N1CCN(c2ccc(OC[C@H]3CO[C@](Cn4ccnc4)(c4ccc(Cl)cc4Cl)O3)cc2)CC1` (relative stereo), for the setting “Table I”, the “ED50 (crop candidosis in turkeys)” value is reported as 16 mg/kg of feed.

Consider `CCCN1CCN(c2ccc(OC[C@H]3CO[C@](Cn4cncn4)(c4ccc(Cl)cc4Cl)O3)cc2)CC1` (relative stereo) [(CH2)2CH3], for which the “ED50 (crop candidosis in turkeys)” value (Table II) is 16 mg/kg of feed.

On to `CCCCN1CCN(c2ccc(OC[C@H]3CO[C@](Cn4cncn4)(c4ccc(Cl)cc4Cl)O3)cc2)CC1` (relative stereo) [(CH2)3CH3], for which the “ED50 (crop candidosis in turkeys)” value (Table II) was 16 mg/kg of feed.

For the compound `CCCC(=O)N1CCN(c2ccc(OC[C@H]3CO[C@](Cn4cncn4)(c4ccc(Cl)cc4Cl)O3)cc2)CC1` (relative stereo) [CO(CH2)2CH3, cis-1-{4-[2-(2,4-dichlorophenyl)-2-(1H-1,2,4-triazol-1-ylmethyl)-1,3-dioxolan-4-ylmethoxy]phenyl}-4-(1-oxobutyl)piperazine dihydrochloride], where the note is “Table II”, the “ED50 (crop candidosis in turkeys)” value is on record as 16 mg/kg of feed.

In the case of `CCC(=O)N1CCN(c2ccc(OC[C@H]3CO[C@](Cn4cncn4)(c4ccc(Cl)cc4Cl)O3)cc2)CC1` (relative stereo) [COC2 H5, cis-1{4-[2-(2,4-dichlorophenyl)-2-(1H-1,2,4-triazol-1-ylmethyl)-1,3-dioxolan-4-ylmethoxy]phenyl}-4-(1-oxopropyl)piperazine dihydrochloride], the “ED50 (crop candidosis in turkeys)” value (Table II) is given as 8 mg/kg of feed.

For the compound `CCOC(=O)N1CCN(c2ccc(OC[C@H]3CO[C@](Cn4cncn4)(c4ccc(Cl)cc4Cl)O3)cc2)CC1` (relative stereo) [COOC2 H5, cis-ethyl 4-{4-[2-(2,4-dichlorophenyl)-2-(1H-1,2,4-triazol-1-ylmethyl)-1,3-dioxolan-4-ylmethoxy]phenyl}1-piperazinecarboxylate dihydrochloride], the “ED50 (crop candidosis in turkeys)” value (Table II) is listed as 8 mg/kg of feed.

In the case of `O=C(Oc1ccccc1)N1CCN(c2ccc(OC[C@H]3CO[C@](Cn4cncn4)(c4ccc(Cl)cc4Cl)O3)cc2)CC1` (relative stereo) [COOC6 H5, cis-phenyl 4-{4-[2-(2,4-dichlorophenyl)-2-(1H-1,2,4-triazol-1-ylmethyl)-1,3-dioxolan-4-ylmethoxy]phenyl}-1-piperazinecarboxylate], under “Table II”, the “ED50 (crop candidosis in turkeys)” value is on record as 16 mg/kg of feed.

In the case of `COC(=O)N1CCN(c2ccc(OC[C@H]3CO[C@](Cn4cncn4)(c4ccc(Cl)cc4Cl)O3)cc2)CC1` (relative stereo) [COOCH 3, cis-methyl 4-{4-[2-(2,4-dichlorophenyl)-2-(1H-1,2,4-triazol-1-ylmethyl)-1,3-dioxolan-4-ylmethoxy]phenyl}-1-piperazinecarboxylate], the “ED50 (crop candidosis in turkeys)” value (Table II) is recorded as 8 mg/kg of feed.

For `O=S(=O)(Cc1ccccc1)N1CCN(c2ccc(OC[C@H]3CO[C@](Cn4cncn4)(c4ccc(Cl)cc4Cl)O3)cc2)CC1` (relative stereo) [SO2CH2C6H5, cis-1-{4-[2-(2,4-dichlorophenyl)-2-(1H-1,2,4-triazol-1-ylmethyl)-1,3-dioxolan-4-ylmethoxy]phenyl}-4-(phenylmethylsulfonyl)piperazine monohydrate], for the setting “Table II”, the “ED50 (crop candidosis in turkeys)” value is on record as 16 mg/kg of feed.

As to `COc1ccc(C2(Cn3ccnc3)OCC(COc3ccc(N4CCN(C(C)=O)CC4)cc3)O2)cc1` (stereo not shown) [1-acetyl-4-{4-[2-(1H-imidazol-1-ylmethyl)-2-(4-methoxyphenyl)-1,3-dioxolan-4-ylmethoxy]phenyl}piperazine], the “ED50 (crop candidosis in turkeys)” value (Table III) is 31 mg/kg of feed.
